In the supplement of paper PMC10307832:

Key:
Assay in all cases: relative viability (nuclei count vs DMSO), 5 days (fraction); higher = more cells survive
[1] = compound: CC1=CC=C(C=C1)C(=O)CN2C3=C(CCCC3)SC2=N [Pifithrin_alpha] + CC(=O)c1c(C)c2cnc(Nc3ccc(N4CCNCC4)cn3)nc2n(C2CCCC2)c1=O [Palbociclib] (partner 0.5 µM)
How it was run: (§1)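 Dosing by pin tool came one day after lung cancer cell lines were seeded in 1536-well plates, using either one drug or a fixed anchor-drug dose plus five library-drug doses (not always all listed) in √10 steps. After 5 days, nuclei were counted on 4× images. Relative viability is treated-well nuclei count divided by vehicle-well nuclei count, and values are medians of duplicate plates.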

[2] = compound: CNC(=O)c1ccccc1Sc1ccc2c(/C=C/c3ccccn3)n[nH]c2c1 [Axitinib] + CC(C)C[C@H](NC(=O)[C@H](Cc1ccccc1)NC(=O)c1cnccn1)B(O)O [Bortezomib] (partner 0.002 µM)
How it was run: as §1

[3] = compound: CNC(=O)c1ccccc1Sc1ccc2c(/C=C/c3ccccn3)n[nH]c2c1 [Axitinib] + COc1cc2c(Oc3ccc(NC(=O)C4(C(=O)Nc5ccc(F)cc5)CC4)cc3F)ccnc2cc1OCCCN1CCOCC1 [Foretinib] (partner 0.25 µM)
How it was run: as §1

[4] = compound: CNC(=O)c1ccccc1Sc1ccc2c(/C=C/c3ccccn3)n[nH]c2c1 [Axitinib] + CS(=O)(=O)CCNCc1ccc(-c2ccc3ncnc(Nc4ccc(OCc5cccc(F)c5)c(Cl)c4)c3c2)o1 [Lapatinib] (partner 2 µM)
How it was run: as §1

Cell Line | relative viability ([1]; first compound 1 µM) | relative viability ([1]; first compound 3.162 µM) | relative viability ([1]; first compound 10 µM) | relative viability ([1]; first compound 31.62 µM) | relative viability ([1]; first compound 100 µM) | relative viability ([2]; first compound 0.005 µM) | relative viability ([2]; first compound 0.01581 µM) | relative viability ([2]; first compound 0.05 µM) | relative viability ([2]; first compound 0.1581 µM) | relative viability ([2]; first compound 0.5 µM) | relative viability ([3]; first compound 0.005 µM) | relative viability ([3]; first compound 0.01581 µM) | relative viability ([3]; first compound 0.05 µM) | relative viability ([3]; first compound 0.1581 µM) | relative viability ([3]; first compound 0.5 µM) | relative viability ([4]; first compound 0.005 µM) | relative viability ([4]; first compound 0.01581 µM) | relative viability ([4]; first compound 0.05 µM) | relative viability ([4]; first compound 0.1581 µM) | relative viability ([4]; first compound 0.5 µM)
NCI-H2085 | 0.499 | 0.432 | 0.449 | 0.446 | 0.444 | 1.15 | 0.966 | 1.06 | 1.04 | 1.05 | 0.979 | 1.05 | 0.884 | 0.9 | 1.07 | 0.803 | 0.778 | 0.798 | 0.755 | 0.684
NCI-H2087 | 0.219 | 0.198 | 0.245 | 0.195 | 0.207 | 0.944 | 0.772 | 0.868 | 0.615 | 1.13 | 1.09 | 0.97 | 0.937 | 1.15 | 1.21 | 1 | 1.26 | 0.947 | 0.864 | 1.2
NCI-H2126 | 0.333 | 0.381 | 0.356 | 0.302 | 0.373 | 1.15 | 1.05 | 1.07 | 1.04 | 1.11 | 1.27 | 0.967 | 1.09 | 1.21 | 1.26 | 0.765 | 0.745 | 0.771 | 0.71 | 0.729
NCI-H2228 | 0.833 | 0.75 | 0.659 | 0.453 | 0.853 | 1.31 | 0.829 | 0.886 | 0.954 | 1.07 | 0.877 | 0.95 | 0.974 | 0.842 | 0.943 | 1.28 | 0.959 | 1.09 | 1.29 | 1.39
NCI-H2347 | 0.468 | 0.415 | 0.442 | 0.386 | 0.365 | 1.26 | 0.752 | 1.36 | 0.798 | 0.692 | 0.954 | 0.747 | 1.12 | 1.11 | 0.799 | 0.979 | 0.971 | 0.966 | 1.04 | 0.922
NCI-H2405 |  | 0.508 | 0.511 | 0.433 | 0.503 | 1.03 | 0.982 | 1.03 | 0.946 | 0.958 | 1.03 | 1.04 | 1.13 | 1.03 | 1.15 | 1.09 | 1.06 | 1.34 | 1.07 | 1.02
NCI-H3122 | 0.175 | 0.211 | 0.193 | 0.146 | 0.195 | 0.904 | 1.03 | 1.04 | 1.05 | 1.07 | 0.928 | 0.847 | 1.02 | 1.01 | 0.951 | 1.03 | 0.977 | 1.04 | 1.04 | 1.13
PC-3 [JPC-3] |  | 0.519 |  | 0.455 | 0.458 | 0.98 |  | 0.807 | 0.833 | 0.964 | 1.01 | 0.988 | 1.02 | 1 | 1.23 | 0.483 |  | 0.453 | 0.445 | 0.447
PC-14 | 0.651 | 0.513 | 0.515 | 0.191 | 0.134 | 1.04 | 0.894 | 0.81 | 0.826 | 1.08 | 0.92 | 0.819 | 0.989 | 0.861 | 1.03 | 0.294 | 0.288 | 0.402 | 0.278 | 0.332
RERF-LC-KJ | 0.91 | 0.974 | 0.886 | 0.66 | 0.635 | 1.12 | 1.12 | 1.02 | 1.14 | 1.19 | 0.916 | 0.892 | 0.887 | 0.86 | 0.854 | 0.865 | 0.829 | 0.824 | 0.809 | 0.932
SK-LU-1 | 0.349 | 0.412 | 0.405 | 0.308 | 0.413 | 1.29 | 1.2 | 1.43 | 1.08 | 1.08 | 0.904 | 0.959 | 0.929 | 0.849 | 1.1 | 0.976 | 0.951 | 0.942 | 0.835 | 1.39
SW 1573 |  | 0.395 | 0.367 | 0.241 | 0.266 | 1.19 | 1.05 | 0.944 | 0.923 | 0.994 | 0.743 | 0.915 | 1.26 | 0.811 | 0.989 | 1.15 | 1.09 | 1.29 | 1.06 | 1.03
UMC-11 | 0.342 | 0.289 | 0.301 | 0.283 | 0.296 | 0.977 | 0.722 | 0.65 | 0.637 | 0.589 | 1.01 | 1.1 | 1.03 | 1.1 | 1.1 | 0.945 | 1.06 | 0.959 | 0.916 | 0.943
